# pEC50, pIC50: −log10 of the molar value. “Also recorded” adds a separate entry of the source. Read-outs that look alike come from different tables or passages of the source.
# Assays:
# SARS-CoV-2 M^pro = SARS-CoV-2 M^pro (Severe acute respiratory syndrome coronavirus 2, UniProt P0DTD1); experiment: biochemical; format: biochemical; settings: for inhibition at 10 µM: read-out: SARS-CoV-2 M^pro % Inhibition at 10 μM; for M^pro inhibition, result in words: tested at 10 µM
# [1] = molecular target: T1, malate dehydrogenase (MDH) (Sus scrofa, UniProt P00346); format: biochemical; settings: 31.6 µM, with or without 0.01% (v/v) Triton X-100
# T1 sequence (P00346 25-338): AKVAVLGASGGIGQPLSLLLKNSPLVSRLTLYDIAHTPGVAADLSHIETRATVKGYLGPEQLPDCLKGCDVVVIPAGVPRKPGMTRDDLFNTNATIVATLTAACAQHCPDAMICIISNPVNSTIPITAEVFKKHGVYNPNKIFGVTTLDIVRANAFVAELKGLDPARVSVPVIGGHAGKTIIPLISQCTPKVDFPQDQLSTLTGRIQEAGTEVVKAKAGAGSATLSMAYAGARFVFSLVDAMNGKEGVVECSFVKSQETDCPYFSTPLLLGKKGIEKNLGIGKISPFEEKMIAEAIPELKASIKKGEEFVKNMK
# [2] = Dynamic light scattering (DLS) for colloidal particle formation; format: physicochemical; settings: 31.6 µM, 50 mM KPi pH 7.0, 1% DMSO
# [3] = system: SARS-CoV-2 isolate NK, Pango lineage B.1.513; experiment: microbe, parasite or virus in culture; format: cell-based; settings: for inhibition of viral titers: 10 µM; for pEC50: read-out: EC50 antiviral activity; for inhibition at 10 µM: Severe acute respiratory syndrome coronavirus 2, Calu-3, 24 h, read-out: inhibition of viral titers
# [4] = system: prostaglandin E2 (PGE2) synthesis; settings: background statement, no reference given; read-out: IC50 for reduction of prostaglandin E2 synthesis; cited from earlier work
# fatty acid synthase = settings: background statement, no reference given; cited from earlier work
# nitric oxide synthesis = settings: background statement, no reference given; read-out: IC50 for reduction of nitric oxide synthesis; cited from earlier work
# HIV-1 protease = settings: background statement, no reference given; cited from earlier work
# [5] = FRET assay, 50 nM M^pro, 10 min preincubation
# [6] = compound at 10 μM, FRET assay, 50 nM M^pro
# [7] = Severe acute respiratory syndrome coronavirus 2, 24 h
Compound,pIC50 (SARS-CoV-2 M^pro; [5]),inhibition at 10 µM (SARS-CoV-2 M^pro; [6]),also measured
"C=C(C)C1CCC2=CC(=O)CC(C)C2(C)C1 (single isomer, unassigned; (+)) [(+)-Nootkaton]",< 5.00,32%,–
"C=C1C(=O)OC2C1CCC(C)=CCCC1(C)OC21 (single isomer, unassigned; (-)) [(−)-Parthenolide]",< 5.00,20.1%,–
CCOC1=C(O)C(=O)O[C@@H]1[C@@H](O)CO [3-O-Ethyl-L-ascorbic acid],–,24.9%,pIC50 (SARS-CoV-2 M^pro): < 5.00
CC1=C2C3OC(=O)C(C)C3CCC2(C)C=CC1=O (stereo not drawn) [(−)-α-Santonin],< 5.00,24.1%,–
C=C1C(=O)OC2CC3(C)CCCC(C)C3=CC12 (stereo not shown) [Alantolacton],< 5.00,27.6%,–
C=C1C(=O)O[C@@H]2/C=C(\C)CC/C=C(\C)CC[C@@H]12 [Costunolide],< 5.00,28%,–
C=C1CC[C@H]2C(=C)CC[C@H]3C(=C)C(=O)O[C@@H]3[C@@H]12 [Dehydrocostus lactone],< 5.00,13.4%,–
O=c1c(O)c(-c2ccc(O)c(O)c2)oc2cc(O)ccc12 [Fisetin],< 5.00,–,SARS-CoV-2 M^pro % Inhibition at 10 μM (SARS-CoV-2 M^pro; [6]): −11.21%
CC(C)=CCC[C@]1(C)C=Cc2c(O)c3c(c(CC=C(C)C)c2O1)O[C@]12C(=C[C@@H]4C[C@H]1C(C)(C)O[C@@]2(C/C=C(/C)C(=O)O)C4=O)C3=O [Gambogic acid],< 5.00,22.8%,–
O=C1O[C@H]([C@@H](O)CO)C(O)=C1O [L-Ascorbic acid],< 5.00,22.2%,–
O=C(OC1Cc2c(O)cc(O)cc2OC1c1cc(O)c(O)c(O)c1)c1cc(O)c(O)c(O)c1 [L-Epigallocatechin gallate],–,105%,"MDH inhibition with 0.01% Triton X-100 (detergent reversibility) [1]: reversed in the presence of detergent; colloidal-like particle formation by DLS ([2]; listed as ECGC): do not form colloidal-like particles; colloidal-like particle formation by DLS ([2]; listed as EGCG): neither of these compounds produced colloidal-like particles; inhibition of viral titers [3]: 81.4%; pEC50 [3]: 6.94; M^pro inhibition, result in words (SARS-CoV-2 M^pro): completely inhibit the SARS-CoV-2 M^pro activity"
COC(=O)C1=CO[C@@H](O[C@@H]2O[C@H](CO)[C@@H](O)[C@H](O)[C@H]2O)[C@@H]2[C@@H](C)[C@@H](O)C[C@H]12 [Loganin],–,29.4%,pIC50 (SARS-CoV-2 M^pro): < 5.00
O=c1cc(-c2ccc(O)c(O)c2)oc2cc(O)cc(O)c12 [Luteoline],< 5.00,9.65%,"M^pro inhibition, result in words (SARS-CoV-2 M^pro): unable to inhibit M^pro"
"CC(C)C(=O)OC[C@H]1O[C@@H](n2ccc(NO)nc2=O)[C@H](O)[C@@H]1O [Molnupiravir, reference compound]",–,–,"pEC50 [3, 7]: 8.26"
C=C1C(=O)[C@]23[C@H](O)[C@H]1CC[C@H]2[C@@]12CO[C@]3(O)[C@@H](O)[C@@H]1C(C)(C)CC[C@@H]2O [Oridonin],–,81.9%,"pEC50 [3, 7]: 7.89; inhibition at 10 µM [3]: 89%"
"CCCCCCCCCCC[C@@H](C[C@@H]1OC(=O)[C@H]1CCCCCC)OC(=O)[C@H](CC(C)C)NC=O [Orlistat, reference compound]",< 5.00,21%,–
COc1ccc2ccc(=O)oc2c1CC=C(C)C [Osthole],< 5.00,4.98%,–
Oc1cc(O)cc(/C=C/c2ccc(O)c(O)c2)c1 [Piceatannol],5.69,76.9%,"pEC50 [3, 7]: 8.47; inhibition at 10 µM [3]: 81%"
C[C@@H]1O[C@@H](Oc2c(-c3ccc(O)c(O)c3)oc3cc(O)cc(O)c3c2=O)[C@H](O)[C@H](O)[C@H]1O [Quercitrin],< 5.00,2.42%,"M^pro inhibition, result in words (SARS-CoV-2 M^pro): unable to inhibit the M^pro enzyme"
C[C@]12CC[C@H](O)C[C@H]1CC[C@@H]1[C@@H]2CC[C@]2(C)[C@@H](c3ccc(=O)oc3)C[C@H]3O[C@]132 [Resibufogenin],–,–,pIC50 (SARS-CoV-2 M^pro): < 5.00; inhibition at 10 µM (SARS-CoV-2 M^pro): 6.32%
Oc1ccc(/C=C/c2cc(O)cc(O)c2)cc1 [Resveratrol],< 5.00,5.96%,"M^pro inhibition, result in words (SARS-CoV-2 M^pro): unable to inhibit the enzyme"
O=c1c(O)c(-c2cc(O)c(O)c(O)c2)oc2cc(O)ccc12 [Robinetin],6.02,86.1%,MDH inhibition with 0.01% Triton X-100 (detergent reversibility) [1]: reversed in the presence of detergent; colloidal-like particle formation by DLS [2]: neither of these compounds produced colloidal-like particles; also recorded: do not form colloidal-like particles; inhibition of viral titers [3]: 89.6%; pEC50 [3]: 8.89
O=C(/C=C/c1ccc(O)c(O)c1)O[C@H](Cc1ccc(O)c(O)c1)C(=O)O [Rosmarinic acid],5.16,50.6%,"pEC50 [3, 7]: 7.78; inhibition at 10 µM [3]: 81%"
O=C(/C=C/c1ccc(O)c(O)c1/C=C/c1ccc(O)c(O)c1)O[C@H](Cc1ccc(O)c(O)c1)C(=O)O [Salvianolic acid A],–,50.8%,–
O=c1cc(-c2ccc(O)cc2)oc2cc(O)c(O)c(O)c12 [Scutellarein],–,76.1%,"pEC50 [3, 7]: 8.59; inhibition at 10 µM [3]: 87%"
COC1=C[C@@H]2[C@@H]3Cc4ccc(OC)c(O)c4[C@]2(CCN3C)CC1=O [Sinomenine],–,–,pIC50 (SARS-CoV-2 M^pro): < 5.00; inhibition at 10 µM (SARS-CoV-2 M^pro): 4.8%
Cc1coc2c1C(=O)C(=O)c1c-2ccc2c(C)cccc12 [Tanshinone I],–,7.03%,–
O=c1cc(-c2cc(O)c(O)c(O)c2)oc2cc(O)cc(O)c12 [Tricetin],5.11,72.3%,–
COc1c(O)cc2oc3cc(O)c(CC=C(C)C)c(O)c3c(=O)c2c1CC=C(C)C [α-Mangostin],4.60,–,pIC50 [4]: 4.91; pIC50 (fatty acid synthase): 5.26; pIC50 (nitric oxide synthesis): 4.95; pIC50 (HIV-1 protease): 5.29
Myricitrin,–,–,"SARS-CoV-2 M^pro % Inhibition at 10 μM (SARS-CoV-2 M^pro; [6]): 11.67%; M^pro inhibition, result in words (SARS-CoV-2 M^pro): did not, however, inhibit M^pro; M^pro inhibition, result in words (SARS-CoV-2 M^pro; listed as myricitrin): did not inhibit M^pro"
